# Results published in patent US6506790B1, “Compounds and methods” (SmithKline Beecham Corporation, priority 1999, dated 2003).
structure (smiles),measurement,value
"CNC1CC(C)(C)Oc2cc3c(cc21)C(c1cccc(Cl)c1)CC(C)(C)O3 (stereo not shown) [Example 4, 6-(3-chlorophenyl)-3,4,7,8-tetrahydro-N-methyl-2,2,8,8-tetramethyl-2H,6H-benzo[1,2-b:5,4-b′]dipyran-4-amine]",melting point,190 to 192 °C
